The subject of data set [1] is tyrosinase. The data set can be described thus: Tyrosinase activity screening in S91 melanoma cell line. The class given is cell-based. The method, then: (§1) A screening test is employed to select compounds in vitro before in vivo testing. The better compounds are found to stimulate higher levels of tyrosinase activity in cell cultures. Often the increase in tyrosinase activity is accompanied by a small decrease in cell number.
(§2) To obtain more rapid results, the tests can be run with a melanoma cell line such as Cloudman S91 melanoma cells. However, if desired, normal human melanocytes (NHM) can also be employed. The compounds to be tested are added as aqueous solutions to the cell culture medium. After four days, the cells are harvested and counted, and a tyrosinase activity assay and a total protein determination are run on cell pellets.

The test system of data set [2] is tyrosinase. Nature of the data set: Tyrosinase activity screening in normal human melanocytes (NHM). Type of data set: cell-based. The conditions noted are these: NHM, 0.5, 10 and 50 mM. The protocol: as §1, §2
Data set [3] relates to pigmented guinea pig skin. Nature of the data set: In vivo tanning test on pigmented guinea pig skin. The method, then:
To confirm the results of in vitro testing, in vivo testing was conducted on pigmented guinea pig skin. Five animals were used in each of the treatment or control groups.
1. Animals were clipped in a suitably pigmented area over the back or flank and chemically depilated prior to the first treatments. The area was at least 4 cm^2. The treatment site was 3 cm^2 and was carefully marked. Photographs of areas to be treated were taken prior to initial treatments. Animals were clipped as needed throughout the study, depilation was only done prior to evaluations.
2. Concentrations of imidazole of 0.1, 0.5, 1.0 and 2.0M were applied as a liquid in 50% EtOH. 100 μL volumes were applied via pipette and glass rod with minimal rubbing of the skin.
3. Treatments were made daily, 5 days per week for 3 weeks. Visual observations and photographic records were made at the study midpoint and 24 hours after the last treatment. Animals were clipped and depilated prior to these evaluations.
4. The animals were monitored for two weeks following the last treatment. At the end of the fifth week, animals were photographed.

In data set [4] the test system is tyrosinase. The data set can be described thus: Tyrosinase activity assay of cell cultures stimulated with imidazole (cell line not stated). The class given is cell-based. The conditions noted are these: four days, control (0 mM) 111.9. The protocol:
as §1, §2
Dose-response curves from tyrosinase assays of cells stimulated with imidazole have slopes of about 1.1.

Take `O=Cc1ncc[nH]1` [2-imidazolecarboxaldehyde]: the “tyrosinase activity versus control” value with tyrosinase [1] (at 0.5 mM (tested 0.1, 0.25, 0.5 mM)) was “elevated”; in the data set on tyrosinase [1] (at 0.1 and 0.25 mM), “decreased activity”.
Consider `O=C1NCCN1` [2-imidazolidone], for which the “tyrosinase activity versus control” value is “moderate inhibition” in the data set with tyrosinase [2] and “slight increase” with tyrosinase [1] (at 50 mM (tested 0.5, 10, 50 mM)).
Take `OCc1c[nH]cn1` [4-(hydroxymethyl)imidazole]: the “tyrosinase activity versus control” value in the data set on tyrosinase [1] (at 0.25 and 0.5 mM (tested 0.1, 0.25, 0.5 mM)) is given as “slightly increased”.
In the case of `O=C(O)Cc1c[nH]cn1` [4-imidazoleacetic acid], the “tyrosinase activity versus control” value in the data set on tyrosinase [1] (0.5 and 10 mM, may be due to acidic pH of test solutions) is “dose dependent decrease”.
For `N[C@@H](Cc1c[nH]cn1)C(=O)O` [L-histidine monochloride monohydrate], the “tyrosinase activity versus control” value in the data set on tyrosinase [1] (at 0.5 mM (tested 0.5 and 10 mM)) is given as “increased tyrosinase activity”.
Take `c1c[nH]cn1` [imidazole]: the “visual observation of treated sites (darkening)” value in data set [3] (0.1, 0.5, 1.0 and 2.0M in 50% EtOH, topical 100 μL daily, 5 days per week for 3 weeks) was “darkening for all areas”. The skin irritation entry in data set [3] (2.0M solution in 50% EtOH, topical) was “appeared to mildly irritate the skin of some of the animals”. In addition, the “visual observation of treated sites (degree of tanning)” value in data set [3] (at 0.5 to 1.0M in 50% EtOH, topical, 3 weeks) was “most tanning”. The “course of darkening over time” value in data set [3] (daily topical treatments for 3 weeks) is listed as “continued to increase through the third week”. For the same compound, in data set [3] (daily topical treatments, 5 days per week), the “number of treatments after which darkening was observed” value is listed as 5-10 treatments. The “tyrosinase activity, DPM/1000 cells” value in the data set on tyrosinase [4] (0.5 mM) came out at 210.7 DPM/1000 cells; in the data set with tyrosinase [4] (1.0 mM) it was 263.2 DPM/1000 cells; with tyrosinase [4] (5.0 mM), 329.2 DPM/1000 cells; in the data set on tyrosinase [4] (10.0 mM), 516.1 DPM/1000 cells.
